Reference: patent publication US7993921B2, “Cell cycle regulation and differentiation” (National Institutes of Health (NIH), priority 2007, dated 2011)

What was measured:
[1] = test system: p57^Kip2; test: p57^Kip2 expression in OPCs (RT-PCR, immunostaining of clones); assay type: cell-based, rat
Source text: p57^Kip2 was either over-expressed or reduced in levels in pure OPCs, and normal OL differentiation and OPC proliferation was observed. To test the necessity of p57^Kip2 in OL differentiation, knockdowns for p57^Kip2 were used to reduce p57^Kip2 levels in OPCs. p57^Kip2 levels were reduced by transfecting OPCs with siRNA directed against the p57^Kip2 transcript, and then cultured the transfected OPCs in media that stimulated OL differentiation. […] OPCs transfected with firefly luciferase- (cont) or p57^Kip2-targeting siRNA pools (Dharmacon) were cultured for 4 D.I.V. in −PDGF +T3 or +PDGF +T3 media and reduction in p57^Kip2 transcript levels by this method was confirmed by RT-PCR (27 cycles).
OL differentiation can be triggered by either by mitogen withdrawal or by the intrinsic timer coupled with exposure to T3 (Barres and Raff, Neuron 12:935-942 (1994)). Whereas either of these conditions will produce mature OLs, the initial genetic programs triggered by these two stimuli are not identical (Tokumoto et al., EMBO J. 20:5261-5268 (2001)). To more precisely determine how p57^Kip2 expression is induced, purified P8 OPCs were subjected to either mitogen withdrawal, T3 exposure, or both differentiation-promoting stimuli simultaneously (FIG. 48I). […]

[2] = test system: OPCs from the cortex and cerebellum; test: Differentiation of OPCs from the cortex and cerebellum in response to T3; assay type: cell-based, rat; conditions: 7 days in vitro +PDGF +T3
Protocol: OPCs were purified via immunopanning specifically from the cortices or cerebellums of P7 Sprague-Dawley rats. These cells were then plated onto glass coverslips in the presence or absence of mitogens PDGF and NT3 (±PDGF) and presence or absence of thyroid hormone (±T3) and cultured for 3 (−PDGF) or 7 (+PDGF ±T3) days in vitro, with fresh media being supplied every 2-3 days. At the end of this time, cultures were stained for either CNPase expression (less mature) or MBP expression (more mature) as markers of OL differentiation. Percentages of healthy cells (as assessed by healthy nuclei visualized by DAPI staining) expressing indicated markers were quantified for each condition. […] All experiments analyzed in triplicate, ±S.E.M.

[3] = test system: KLF9, Hr, DBP, BHLHB5; test: Transcription factor induction by T3 in OPCs (Affymetrix Mouse Genomic 430 2.0 chips); assay type: cell-based
Protocol: FIG. 57. KLF9, Hr, DBP, and BHLHB5 are induced in OPCs by T3. Transcription factor probe sets were induced >2-fold by T3 at early time points relative to untreated (+PDGF −T3) controls. OPCs were treated with T3 for either 1 day or 6 days in vitro with T3 (+PDGF +T3), or for only 3 hours with T3 following 1 day or 6 days in vitro in media lacking T3 (+PDGF −T3, then 3 hours +PDGF +T3). All samples were labeled and hybridized to Affymetrix Mouse Genomic 430 2.0 chips.
In OPCs cultured in saturating amounts of mitogens and T3, a small number of transcription factors are rapidly and robustly regulated in response to T3 presentation (as compared to control cultures maintained in mitogens in the absence of T3). These four genes are 1) Kruppel-Like Factor 9 (KLF9), also known as Basic Transcription Element Binding protein 1(BTEB1), 2) basic helix-loop-helix domain containing, class B5 (BHLHB5), also known as Beta3, 3) Hairless, (Hr), or ALUNC, AU, N, ba, bldy, hr, rh, rh-bmh, rhino, and 4) D site albumin promoter binding protein (DBP). KLF9, Hr, and DBP are all induced (2-6 fold) rapidly in OPCs in response to T3, before the OPCs initiate differentiation in response to T3 presentation (FIG. 57).

expression of mature OL proteins (CNPase, MBP) in cerebellar vs cortical OPCs in response to T3 [2]: similarly
SMILES: N[C@@H](Cc1cc(I)c(Oc2ccc(O)c(I)c2)c(I)c1)C(=O)O [T3, triiodothyronine]
clones expressing uniformly high levels of p57^Kip2 ([1]; 7 days in +PDGF +T3 medium, clonal density): 15 out of 23 | p57^Kip2 expression by semi-quantitative RT-PCR ([1]; T3 exposure, 6 DIV, purified P8 OPCs): did not induce | KLF9, Hr and DBP induction in OPCs in response to T3 ([3]; +PDGF +T3 vs +PDGF −T3 controls): 2-6 fold | transcription factor probe sets (KLF9, Hr, DBP, BHLHB5) induced by T3 ([3]; early time points relative to untreated (+PDGF −T3) controls): > 2 fold | KLF9 induction by T3 in OPCs ([3]; within 3 hours of T3 exposure): 4 fold
